Source: publication PMC8922281, “Synthesis and In Vitro Biological Evaluation of Quinolinyl Pyrimidines Targeting Type II NADH-Dehydrogenase (NDH-2)” (ACS Infectious Diseases, 2022)
≈ marks a conversion by molar mass, not a printed value. Where “and” joins values, the source holds several entries; their conditions need not be identical. Identical values can stand only once. Like-named read-outs stand apart in the source and are kept apart here.

Legend:
[1] = test system: P. falciparum K1; test: Plasmodium falciparum K1 growth (Malstat); type: cell-based; conditions: reference compound, 72 h
Description: acceptor at a range of concentrations.
2.1.3. IC50 determination
Compounds were pre-incubated
IC50 is calculated. […] The […]
of PES (phenazine ethosulfate, 0.1 mg/ml) and NBT (Nitro Blue Tetrazolium Grade III, 2 mg/ml) in a new plate. The absorbance change was measured at 655nm. The results were shown as % reduction in parasitemia, compared to control wells with no treatment.
3. Trypanosoma brucei sample has 7*104 parasites/ml in the suspension. Cultured for 3 days, the growth of the cells was assessed fluorimetrically with the addition of resazurin in a microtiter plate. The fluorescence intensity was measured after 24h at 37 °C with the excitation wavelength at 550nm and the emission wavelength at 590nm. The results were presented as % reduction in parasite growth, compared to reference wells with no treatment, followed by IC50 calculation. Suramine was used as the reference compound […]
A compound with IC50 higher than 5 µM is classified as the […]
subsequently evaluated in a secondary assay, with broader concentration range, additional references, and other species.
IC50 values are shown in Table S1, followed by semi-quantitative activity scores, and indications for specificity. […]

[2] = target: MtNDH-2 (Mycobacterium tuberculosis, UniProt P95160); test: biochemical; parameters: species or system M. tuberculosis; conditions: MtNDH-2 IC50
Chain of MtNDH-2 (P95160 2-463, added parts left off): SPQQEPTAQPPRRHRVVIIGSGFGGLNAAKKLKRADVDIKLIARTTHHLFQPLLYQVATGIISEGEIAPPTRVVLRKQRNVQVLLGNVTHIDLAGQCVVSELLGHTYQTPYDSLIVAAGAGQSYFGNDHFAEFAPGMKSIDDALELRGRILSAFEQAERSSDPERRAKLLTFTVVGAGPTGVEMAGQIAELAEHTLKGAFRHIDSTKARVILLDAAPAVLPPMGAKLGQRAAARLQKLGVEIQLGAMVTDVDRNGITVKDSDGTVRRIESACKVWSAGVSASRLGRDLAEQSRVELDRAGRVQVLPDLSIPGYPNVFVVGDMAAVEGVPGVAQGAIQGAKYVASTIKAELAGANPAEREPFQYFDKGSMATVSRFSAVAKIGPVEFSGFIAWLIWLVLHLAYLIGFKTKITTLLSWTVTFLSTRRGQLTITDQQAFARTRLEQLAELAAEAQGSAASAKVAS

[3] = target: MsNDH-2 (Mycolicibacterium smegmatis, UniProt A0QYD6); test: Inhibition of MsNDH-2 (NADH oxidation with menadione, absorbance at 340 nm); type: biochemical, M. smegmatis
Chain of MsNDH-2 (A0QYD6 1-457): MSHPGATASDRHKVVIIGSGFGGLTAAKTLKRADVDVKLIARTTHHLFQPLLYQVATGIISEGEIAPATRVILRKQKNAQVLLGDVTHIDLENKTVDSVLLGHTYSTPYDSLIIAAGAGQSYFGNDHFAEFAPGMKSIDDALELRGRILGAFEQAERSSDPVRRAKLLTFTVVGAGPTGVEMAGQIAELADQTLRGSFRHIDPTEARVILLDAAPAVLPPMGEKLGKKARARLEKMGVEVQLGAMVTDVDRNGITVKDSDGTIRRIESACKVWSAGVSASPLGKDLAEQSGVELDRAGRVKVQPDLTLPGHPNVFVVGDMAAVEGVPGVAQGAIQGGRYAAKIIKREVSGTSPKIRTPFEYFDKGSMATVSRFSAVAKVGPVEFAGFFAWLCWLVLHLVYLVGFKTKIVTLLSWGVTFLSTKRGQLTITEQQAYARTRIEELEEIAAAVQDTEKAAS

[4] = test system: E. coli (ATCC 25922, wild-type); test: MIC on ESKAPE pathogens, E. coli wild-type; type: cell-based; conditions: Escherichia coli, ATCC25922, read-out: MIC Ec WT
[5] = test system: E. coli (ΔtolC efflux-defective mutant, isogenic to ATCC 25922); test: microbe, parasite or virus in culture; type: cell-based; conditions: Escherichia coli, ATCC25922, read-out: MIC Ec ΔtolC
[6] = test system: E. coli (D22, lpxC mutant, drug-hypersensitive); test: microbe, parasite or virus in culture; type: cell-based; conditions: Escherichia coli, read-out: MIC Ec D22
[7] = test system: P. aeruginosa (PAO1, wild-type); test: MIC on ESKAPE pathogens, P. aeruginosa wild-type; type: cell-based; conditions: Pseudomonas aeruginosa, PAO1, read-out: MIC Pa WT
[8] = test system: P. aeruginosa (PAO750 efflux-defective mutant, isogenic to PAO1); test: microbe, parasite or virus in culture; type: cell-based; conditions: Pseudomonas aeruginosa, PAO1, read-out: MIC Pa efflux
[9] = test system: A. baumannii (ATCC 19606, wild-type); test: MIC on ESKAPE pathogens, A. baumannii; type: cell-based; conditions: Acinetobacter baumannii, ATCC19606; A. baumannii ATCC 19606, wild-type; read-out: MIC Ab WT
[10] = test system: S. aureus (ATCC 29213, wild-type); test: MIC on ESKAPE pathogens, S. aureus; type: cell-based; conditions: Staphylococcus aureus, ATCC29213
[11] = test system: M. tuberculosis strain H37Rv (ATCC 25618); test: MIC on M. tuberculosis by resazurin reduction microplate assay (REMA); type: cell-based; conditions: Mycobacterium tuberculosis
[12] = Cytotoxicity on the MRC-5 cell line (resazurin); type: cell-based; conditions: human, MRC-5SV2 cells, MRC-5SV2, 3 days
Description: MRC-5SV2 cells were cultured in Earl’s MEM + 5% FCSi. Assays were performed in 96-well microtiter plates, each well containing about 10^4 cells/well. After 3 days of incubation with or without compounds, cell viability was assessed fluorimetrically after the addition of resazurin (λex 550 nm, λem 590 nm). The results were expressed as % reduction in cell growth/viability compared to untreated control wells and CC50 was determined. Testing/retesting strategy was as described above for HepG2 cells.

[13] = test system: E. coli MG1655 ΔtolC resistant mutants; test: microbe, parasite or virus in culture; type: cell-based; conditions: for MIC: Escherichia coli
[14] = test system: K. pneumonia (ATCC 13833, wild-type); test: MIC on ESKAPE pathogens, K. pneumoniae
[15] = test system: HepG2 cells; conditions: human, 72 h
[16] = H37Rv, reference antitubercular agents, read-out: MIC M. tuberculosis

`CCN(CC)CCCC(C)Nc1ccnc2cc(Cl)ccc12` (stereo not drawn) [Chloroquine] showed an IC50 [1] of 210 nM.
In the case of `CC(C)(C)OC(=O)NCC1CCN(c2cc(Nc3ccc4nc(-c5ccc(F)cc5)cc(N)c4c3)nc(N)n2)CC1` [Compound 8g, tert-Butyl ((1-(2-Amino-6-((4-amino-2-(4-fluorophenyl)quinolin-6-yl)amino)pyrimidin-4-yl)piperidin-4-yl)methyl)carbamate], the IC50 [2] is reported as 290 nM and 286 nM, the IC50 ([3]; 95% confidence interval in parentheses, 50 nM enzyme, 50 μM menadione, >100: no significant inhibition at 100 μM) is reported as 580 nM and the IC50 ([3]; same IC50 given in μg/mL to assist comparisons with MICs) is reported as 537 nM. The MIC [4] was over 128 µg/mL, the MIC [5] was 4 µg/mL (≈ 7.16 µM) and the MIC [6] was 4 µg/mL (≈ 7.16 µM). For the same compound, the MIC [7] was over 128 µg/mL, the MIC [8] was 128 µg/mL (≈ 229 µM) and the MIC [9] was 4 µg/mL (≈ 7.16 µM). It also gave an MIC [10] of 4 µg/mL (≈ 7.16 µM), an MIC ([11]; M. tuberculosis H37Rv, read-out: MIC Mtb) of 6.8 µg/mL and an IC50 at 3 days ([12]; resazurin) of 1400 nM. For the same compound, the IC50 at 3 days ([12]; value in parentheses) was 0.8 µg/mL, the MIC ([13]; MG1655, read-out: MIC mutant, mutant CH5053 raised against 8g, ackA Leu255Arg) was 16 µg/mL (≈ 28.6 µM) and the MIC ([13]; MG1655, read-out: MIC mutant, mutant CH5054 raised against 8g, ackA Glu375 stop codon) was 16 µg/mL (≈ 28.6 µM). The MIC ([13]; MG1655, read-out: MIC mutant, mutant CH5055 raised against 8g, ackA Thr233Pro) was 16 µg/mL (≈ 28.6 µM), the MIC ([13]; MG1655, read-out: MIC mutant, mutant CH5056 raised against 8g, ackA Gly275Asp) was 16 µg/mL (≈ 28.6 µM) and the MIC ([13]; MG1655, read-out: MIC mutant, mutant CH5057 raised against 8g, eno Pro38Leu) was 8 µg/mL (≈ 14.3 µM). It also gave an MIC ([13]; MG1655, read-out: MIC mutant, mutant CH5058 raised against 8g, ackA Ile92fs) of 16 µg/mL (≈ 28.6 µM), an MIC ([13]; MG1655, read-out: MIC mutant, mutant CH5059 raised against 8g, ackA Arg91Ser) of 16 µg/mL (≈ 28.6 µM) and an MIC ([13]; MG1655, read-out: MIC mutant, mutant CH5062 raised against 8g, ackA Gly241Asp) of 16 µg/mL (≈ 28.6 µM). The MIC ([13]; MG1655, read-out: MIC mutant, mutant CH5063 raised against 8g, ackA Arg91Leu) was 16 µg/mL (≈ 28.6 µM), the “fold increase of MIC” value ([13]; mutant CH5053 vs parent E. coli MG1655 ΔtolC) was 4 and the “fold increase of MIC” value ([13]; mutant CH5054 vs parent E. coli MG1655 ΔtolC) was 4. The “fold increase of MIC” value ([13]; mutant CH5055 vs parent E. coli MG1655 ΔtolC) was 4, the “fold increase of MIC” value ([13]; mutant CH5056 vs parent E. coli MG1655 ΔtolC) was 4 and the “fold increase of MIC” value ([13]; mutant CH5057 vs parent E. coli MG1655 ΔtolC) was 2. The “fold increase of MIC” value ([13]; mutant CH5058 vs parent E. coli MG1655 ΔtolC) was 4, the “fold increase of MIC” value ([13]; mutant CH5059 vs parent E. coli MG1655 ΔtolC) was 4 and the “fold increase of MIC” value ([13]; mutant CH5062 vs parent E. coli MG1655 ΔtolC) was 4. For the same compound, the “fold increase of MIC” value ([13]; mutant CH5063 vs parent E. coli MG1655 ΔtolC) was 4 and the “MIC Kp WT” value [14] was 128 µg/mL (≈ 229 µM).
In the case of `CO[C@H]1/C=C/O[C@@]2(C)Oc3c(C)c(O)c4c(O)c(c(/C=N/N5CCN(C)CC5)c(O)c4c3C2=O)NC(=O)/C(C)=C\C=C\[C@H](C)[C@H](O)[C@@H](C)[C@@H](O)[C@@H](C)[C@H](OC(C)=O)[C@@H]1C` [Rifampicin, reference compound], the MIC [11, 16] is reported as 0.0003 µM, the “cytotoxicity HepG2 TD50” value [15] is reported as 75 µM and the “cytotoxicity HepG2 TD99” value [15] is reported as at least 100 µM.
In the case of `COc1nc2ccc(Br)cc2cc1[C@@H](c1ccccc1)[C@@](O)(CCN(C)C)c1cccc2ccccc12` [bedaquiline, reference compound], the MIC [11, 16] is reported as 0.37 µM, the “cytotoxicity HepG2 TD50” value [15] is reported as 50 µM and the “cytotoxicity HepG2 TD99” value [15] is reported as at least 100 µM.
